Common to all, as to assay: NCI-60 cell line screen, 48 h
Test [1] relates to T47D.
Test [2] has as its system LOX IMVI.
Test [3] concerns SNB-19.
Test [4] concerns Hs-578T.
The subject of test [5] is OVCAR-4.
Test [6] relates to UO-31.
For test [7], the system named is ACHN.
Test [8] deals with Malme-3M.
The subject of test [9] is UACC-62.
Test [10] has as its system SR.
For test [11], the system named is SK-MEL-28.
Test [12] relates to SN12C.
Test [13] concerns KM12.
For test [14], the system named is OVCAR-3.
The subject of test [15] is MDA-MB-231.
The test system of test [16] is UACC-257.
The subject of test [17] is HL-60.
Test [18] deals with SW-620.
The subject of test [19] is K562.

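Cultured in 96-well plates, cells were exposed to test compound for 48 hours across five concentrations. At the GI50, growth is halved.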 Calls of active or inactive are those of the source. Rule as the data show it: active = GI50 up to about 1.1 µM and inactive = higher. Bounds are passed on as bounds.

In the case of `O=c1cc(-c2ccc(O)c(O)c2)oc2cc(O[C@H]3O[C@H](CO)[C@@H](O)[C@H](O)[C@H]3O)cc(O)c12`, the GI50 is 89.1 µM (inactive) in [1]; 35.6 µM (inactive) in [2]; 75.9 µM (inactive) in test [3]; 29.3 µM (inactive) in test [4]; > 100 µM (inactive) in test [5]; 11.2 µM (inactive) in [6]. Also, the GI50 is 65.5 µM (inactive) in test [7]; > 100 µM (inactive) in test [8]; 93.1 µM (inactive) in test [9]; 5.69 µM (inactive) in [10]; 59.3 µM (inactive) in test [11]; > 100 µM (inactive) in test [12]. For the same compound, the GI50 in test [13] was 38 µM (inactive); in [14] it was 81.7 µM (inactive); in [15] it was > 100 µM (inactive); in test [16], > 100 µM (inactive); in test [17] it was 37.7 µM (inactive); in test [18], > 100 µM (inactive).

On to `COC(=O)CN1CCN(c2cccc3c2CCCC3)CC1`, for which the GI50 in test [1] is 98.2 µM (inactive); in test [2], 43.5 µM (inactive); in [3], > 100 µM (inactive); in test [4] it was > 100 µM (inactive); in [5], 52.8 µM (inactive); in [6] it was 92.3 µM (inactive). The GI50 in test [7] is 72.9 µM (inactive); in test [8], 24.5 µM (inactive); in test [9] it was > 100 µM (inactive); in [10], 35.5 µM (inactive); in [12] it was 56 µM (inactive); in [13], 43.9 µM (inactive). Besides, the GI50 in test [14] is 19.9 µM (inactive); in test [15] it was 71.9 µM (inactive); in [16], 50.6 µM (inactive); in test [19] it was 90.2 µM (inactive); in test [17], 35.2 µM (inactive); in test [18], > 100 µM (inactive).

In the case of `O=C(O)CSC1=NC(=O)C2(NN1)c1ccccc1-c1ccccc12`, the GI50 in test [1], in test [2], in test [3], in [4], in [5] and in test [6] was > 10 µM (inactive) in each case. Further, the GI50 in test [7], in [8], in [9], in test [10], in test [11] and in [12] was > 10 µM (inactive) throughout. The GI50 in test [13], in test [15], in test [16], in test [19], in test [17] and in test [18] was > 10 µM (inactive) in each case.

Take `CC1=NN(c2ccccc2Cl)C2(C1)C(Cl)C(=O)N2c1nc2ccccc2s1` (stereo not given): the GI50 is 44.3 µM (inactive) in test [1]; 15.5 µM (inactive) in [2]; 52.7 µM (inactive) in [3]; > 100 µM (inactive) in test [4]; > 100 µM (inactive) in test [5]; 61.8 µM (inactive) in [6]. The GI50 in test [7] is 94.8 µM (inactive); in [8], 92.5 µM (inactive); in test [9], 44.6 µM (inactive); in test [10], 21.1 µM (inactive); in [12], 31.8 µM (inactive); in test [13], 55.6 µM (inactive). Also, the GI50 in test [14] was 17.3 µM (inactive); in test [15], 46.6 µM (inactive); in [16], > 100 µM (inactive); in test [19] it was 37.5 µM (inactive); in [17], 25.5 µM (inactive); in [18], 63.4 µM (inactive).

`O=c1[nH][nH]c(=O)c2c1ccc1oc3ccccc3c12`: the GI50 in test [1], in test [3], in test [4], in test [5], in test [6] and in test [7] was > 100 µM (inactive) in each case. The GI50 in test [8], in test [9], in [10], in test [11], in [12] and in test [13] was > 100 µM (inactive) in each case. In addition, the GI50 in [14], in test [15], in [16], in test [19], in [17] and in test [18] was > 100 µM (inactive) throughout.

In the case of `NC1=C(N2CCOCC2)C(=O)NC2=N/C(=C\c3ccccc3O)C(=O)N21`, the GI50 in [1] is 51.2 µM (inactive); in test [2], > 100 µM (inactive); in test [3] it was > 100 µM (inactive); in test [4] it was > 100 µM (inactive); in test [5], 13.5 µM (inactive); in [6], > 100 µM (inactive). The GI50 in test [7] was > 100 µM (inactive); in test [8] it was 84.3 µM (inactive); in [10] it was 35.6 µM (inactive); in test [11], > 100 µM (inactive); in test [12] it was > 100 µM (inactive); in [13], > 100 µM (inactive). The GI50 was > 100 µM (inactive) in test [15]; > 100 µM (inactive) in test [16]; 52.2 µM (inactive) in [19]; 41.6 µM (inactive) in test [17]; > 100 µM (inactive) in test [18].

In the case of `Cc1nc(-c2ccc([N+](=O)[O-])cc2)cn2c1nc1ccccc12`, the GI50 was 8.81 µM (inactive) in test [1]; > 100 µM (inactive) in [2]; 65.8 µM (inactive) in test [3]; > 100 µM (inactive) in test [4]; > 100 µM (inactive) in [5]; > 100 µM (inactive) in test [6]. In addition, the GI50 in [8] is > 100 µM (inactive); in test [9], 15.9 µM (inactive); in test [10] it was > 100 µM (inactive); in test [11], > 100 µM (inactive); in test [12], > 100 µM (inactive); in [13], > 100 µM (inactive). In addition, the GI50 in test [14], in test [15], in test [16], in [19], in [17] and in [18] was > 100 µM (inactive) throughout.

In the case of `COC(=O)/C(C#N)=C(\Nc1ccccc1)N1CCCCC1`, the GI50 in test [1], in test [2], in test [3], in test [4], in test [5] and in test [6] was > 100 µM (inactive) in each case. The GI50 in [7], in test [8], in [10], in [11], in test [12] and in [14] was > 100 µM (inactive) each time. Also, the GI50 in [15], in [16], in test [19], in test [17] and in test [18] was > 100 µM (inactive) each time.

`COC1(OC)N=C(N)C2(C#N)C(c3ccccc3)NC3=C(CCC3)C12C#N` (stereo not given): the GI50 in [1], in test [2], in test [3], in [4], in test [5] and in test [6] was > 100 µM (inactive) throughout. In addition, the GI50 in test [7], in [8], in [9], in test [10], in test [11] and in test [12] was > 100 µM (inactive) each time. Also, the GI50 in test [13], in [15], in [16], in [17] and in [18] was > 100 µM (inactive) throughout.

On to `CC(C)CCOC(=O)NC(Nc1ccc(F)cc1)(C(F)(F)F)C(F)(F)F`, for which the GI50 in test [1] was 6.22 µM (inactive); in test [2], 40.9 µM (inactive); in [3] it was 62.2 µM (inactive); in test [4] it was > 100 µM (inactive); in test [6], 10.7 µM (inactive); in [7], 1.66 µM (inactive). Further, the GI50 in test [8] is > 100 µM (inactive); in [9], 0.279 µM (active); in test [10] it was 0.679 µM (active); in [11], > 100 µM (inactive); in [12], 36.1 µM (inactive); in test [13], 5.98 µM (inactive). For the same compound, the GI50 was 37.4 µM (inactive) in test [14]; 7.91 µM (inactive) in test [15]; > 100 µM (inactive) in [16]; 0.695 µM (active) in test [19]; 12.9 µM (inactive) in test [17]; 19 µM (inactive) in test [18].

For the compound `O=c1[nH]c(=O)n(C2OC(CO)C(O)C2O)cc1Oc1ccccc1` (stereo not given), the GI50 is > 100 µM (inactive) in test [1]; > 100 µM (inactive) in [2]; > 100 µM (inactive) in [3]; 98.9 µM (inactive) in [4]; > 100 µM (inactive) in [5]; > 100 µM (inactive) in [7]. Moreover, the GI50 in test [8], in test [9], in [10], in [11], in test [12] and in test [13] was > 100 µM (inactive) in each case. In addition, the GI50 in test [14], in test [15], in [16], in [19], in test [17] and in test [18] was > 100 µM (inactive) throughout.

The values are drawn from ChEMBL document CHEMBL1201862, “PubChem BioAssay data set” (2004).
